Like-named read-outs stand apart in the source and are kept apart here.
Assays:
[1] = tested on: yeast species; test: Effect of levulinic acids plus SDS at 21° C. on various yeast species
[2] = tested on: S. enteritidis; test: Reduction of S. enteritidis in water treated with organic acids and SDS; assay type: cell-based, Salmonella enteritidis; conditions: within 30 minutes
[3] = tested on: Feline Calicivirus (FCV); test: Inactivation of FCV by levulinic acid plus SDS in solution, plaque assay; conditions: 21° C., 1 min
[4] = tested on: Murine norovirus (MNV-1); test: Inactivation of MNV-1 by levulinic acid plus SDS in solution, plaque assay; conditions: 21° C., 1 min
[5] = tested on: spores of Bacillus anthracis Sterne (34F2); assay type: cell-based
[6] = Candida magnoliae, inoculum […] 10^8 CFU/ml
[7] = Debaryomyces hansenii, inoculum […] 10^7 CFU/ml
[8] = Geotrichum candidum, inoculum […] 10^7 CFU/ml
[9] = Saccharomyces cerevisiae, inoculum […] 10^7 CFU/ml
[10] = Zygosaccharomyces bailii, inoculum […] 10^7 CFU/ml
[11] = Experiment A4 absent heat, RT, 0 min
[12] = Experiment A4 absent heat, RT, 1 h
[13] = Experiment A4 absent heat, RT, 2 h
[14] = Experiment A4 absent heat, RT, 3 h
[15] = Experiment A4 absent heat, RT, 4 h
[16] = Experiment A4 with heat, 65° C., 0 min
[17] = Experiment A4 with heat, 65° C., 1 h
[18] = Experiment A4 with heat, 65° C., 2 h
[19] = Experiment A4 with heat, 65° C., 3 h
[20] = Experiment A4 with heat, 65° C., 4 h
[21] = Experiment A5 absent heat, RT, 0 min
[22] = Experiment A5 absent heat, RT, 1 h
[23] = Experiment A5 absent heat, RT, 2 h
[24] = Experiment A5 absent heat, RT, 3 h
[25] = Experiment A5 absent heat, RT, 4 h
[26] = Experiment A5 with heat, 65° C., 0 min
[27] = Experiment A5 with heat, 65° C., 1 h
[28] = Experiment A5 with heat, 65° C., 2 h
[29] = Experiment A5 with heat, 65° C., 3 h
[30] = Experiment A5 with heat, 65° C., 4 h

SMILES: CCCCCCCCCCCCOS(=O)(=O)[O-].[Na+] [1.0% SDS]
- Yeast counts at 2 min [1, 6]: 3.3 log CFU/ml
- Yeast counts at 5 min [1, 6]: 3.2 log CFU/ml
- Yeast counts at 20 min [1, 6]: 2.7 log CFU/ml
- Yeast counts at 30 min [1, 6]: 3.0 log CFU/ml
- Yeast counts at 60 min [1, 6]: 3.1 log CFU/ml
- Yeast counts at 2 min [1, 7]: 4.1 log CFU/ml
- Yeast counts at 5 min [1, 7]: 4.5 log CFU/ml
- Yeast counts at 20 min [1, 7]: 4.5 log CFU/ml
- Yeast counts at 30 min [1, 7]: 4.5 log CFU/ml
- Yeast counts at 60 min [1, 7]: 4.4 log CFU/ml
- Yeast counts at 2 min [1, 8]: 3.3 log CFU/ml
- Yeast counts at 5 min [1, 8]: 3.5 log CFU/ml
- Yeast counts at 20 min [1, 8]: 3.5 log CFU/ml
- Yeast counts at 30 min [1, 8]: 3.4 log CFU/ml
- Yeast counts at 60 min [1, 8]: 3.3 log CFU/ml
- Yeast counts at 2 min [1, 9]: 2.6 log CFU/ml
- Yeast counts at 5 min [1, 9]: 2.3 log CFU/ml
- Yeast counts at 20 min [1, 9]: 2.7 log CFU/ml
- Yeast counts at 30 min [1, 9]: 2.3 log CFU/ml
- Yeast counts at 60 min [1, 9]: 2.4 log CFU/ml
- Yeast counts at 2 min [1, 10]: 4.6 log CFU/ml
- Yeast counts at 5 min [1, 10]: 4.6 log CFU/ml
- Yeast counts at 20 min [1, 10]: 4.5 log CFU/ml
- Yeast counts at 30 min [1, 10]: 4.5 log CFU/ml
- Yeast counts at 60 min [1, 10]: 4.4 log CFU/ml

SMILES: CC(=O)CCC(=O)O [1.0% levulinic acid, levulinic acid]
- Salmonella reduction in water ([2]; listed as 1% by weight levulinic acid): ≤ 1 log CFU/ml
- Log Reduction PFU/ml (standard deviation), FCV ([3]; listed as 1% Levulinic acid): 0.32 (±0.19) log PFU/ml
- Log Reduction PFU/ml (standard deviation), MNV-1 ([4]; listed as 1% Levulinic acid): −0.04 (±0.23) log PFU/ml

SMILES: CCCCCCCCCCCCOS(=O)(=O)[O-].[Na+] [2% SDS, sodium dodecyl sulfate]
- Recovery levels over time ([5]; Experiment A3): did not decrease
- CFU/ml % recovery (as compared to control flask F) ([5]; Experiment A3, 0 min): 119%
- CFU/ml % recovery (as compared to control flask F) ([5]; Experiment A3, 10 min): 65%
- CFU/ml % recovery (as compared to control flask F) ([5]; Experiment A3, 45 min): 94%
- CFU/ml % recovery (as compared to control flask F) ([5]; Experiment A3, 90 min): 144%
- CFU/ml % recovery (as compared to control flask F) ([5]; Experiment A3, 180 min): 95%
- CFU/ml % recovery (as compared to control flask F) [5, 11]: 85%
- CFU/ml % recovery (as compared to control flask F) [5, 12]: 90%
- CFU/ml % recovery (as compared to control flask F) [5, 13]: 87%
- CFU/ml % recovery (as compared to control flask F) [5, 14]: 98%
- CFU/ml % recovery (as compared to control flask F) [5, 15]: 79%
- CFU/ml % recovery (as compared to control flask F) [5, 16]: 48%
- CFU/ml % recovery (as compared to control flask F) [5, 17]: 53%
- CFU/ml % recovery (as compared to control flask F) [5, 18]: 74%
- CFU/ml % recovery (as compared to control flask F) [5, 19]: 68%
- CFU/ml % recovery (as compared to control flask F) [5, 20]: 114%
- CFU/ml % recovery (as compared to control flask F) [5, 21]: 122%
- CFU/ml % recovery (as compared to control flask F) [5, 22]: 117%
- CFU/ml % recovery (as compared to control flask F) [5, 23]: 103%
- CFU/ml % recovery (as compared to control flask F) [5, 24]: 113%
- CFU/ml % recovery (as compared to control flask F) [5, 25]: 103%
- CFU/ml % recovery (as compared to control flask F) [5, 26]: 71%
- CFU/ml % recovery (as compared to control flask F) [5, 27]: 69%
- CFU/ml % recovery (as compared to control flask F) [5, 28]: 53%
- CFU/ml % recovery (as compared to control flask F) [5, 29]: 71%
- CFU/ml % recovery (as compared to control flask F) [5, 30]: 54%
- effectiveness compared with water control F ([5]; Experiments A4, A5): not more effective than the water control F
- Log Reduction PFU/ml (standard deviation), FCV ([3]; sulfate): −0.05 (±0.22) log PFU/ml
- Log Reduction PFU/ml (standard deviation), MNV-1 ([4]; sulfate): −0.23 (±0.59) log PFU/ml

SMILES: CC(=O)CCC(=O)O [2.0% levulinic acid, levulinic acid]
- Yeast counts at 2 min [1, 7]: 4.9 log CFU/ml
- Yeast counts at 5 min [1, 7]: 4.6 log CFU/ml
- Yeast counts at 20 min [1, 7]: 4.7 log CFU/ml
- Yeast counts at 30 min [1, 7]: 3.0 log CFU/ml
- Yeast counts at 60 min [1, 7]: 1.3 log CFU/ml
- Yeast counts at 2 min [1, 8]: 4.4 log CFU/ml
- Yeast counts at 5 min [1, 8]: 4.3 log CFU/ml
- Yeast counts at 20 min [1, 8]: 3.8 log CFU/ml
- Yeast counts at 30 min [1, 8]: 3.4 log CFU/ml
- Yeast counts at 60 min [1, 8]: 2.0 log CFU/ml
- Yeast counts at 2 min [1, 9]: 5.5 log CFU/ml
- Yeast counts at 5 min [1, 9]: 5.4 log CFU/ml
- Yeast counts at 20 min [1, 9]: 5.3 log CFU/ml
- Yeast counts at 30 min [1, 9]: 5.5 log CFU/ml
- Yeast counts at 60 min [1, 9]: 5.0 log CFU/ml
- Yeast counts at 2 min [1, 10]: 5.5 log CFU/ml
- Yeast counts at 5 min [1, 10]: 5.4 log CFU/ml
- Yeast counts at 20 min [1, 10]: 5.4 log CFU/ml
- Yeast counts at 30 min [1, 10]: 5.4 log CFU/ml
- Yeast counts at 60 min [1, 10]: 5.3 log CFU/ml
- Log Reduction PFU/ml (standard deviation), FCV ([3]; listed as 2% Levulinic acid): 0.51 (±0.34) log PFU/ml
- Log Reduction PFU/ml (standard deviation), MNV-1 ([4]; listed as 2% Levulinic acid): −0.06 (±0.17) log PFU/ml

SMILES: CC(=O)CCC(=O)O [2.0% levulinic acids]
- Yeast counts at 2 min [1, 6]: 5.9 log CFU/ml
- Yeast counts at 5 min [1, 6]: 5.9 log CFU/ml
- Yeast counts at 20 min [1, 6]: 6.0 log CFU/ml
- Yeast counts at 30 min [1, 6]: 5.9 log CFU/ml
- Yeast counts at 60 min [1, 6]: 5.8 log CFU/ml

SMILES: CC(=O)CCC(=O)O [3.0% levulinic acid, levulinic acid]
- Salmonella reduction in water [2]: 3.4 log CFU/ml
- Salmonella reduction in water ([2]; listed as 3% levulinic acid): about 3.4 log CFU/ml
- CFU/ml % recovery (as compared to control flask F) ([5]; Experiment A3, 0 min): 108%
- CFU/ml % recovery (as compared to control flask F) ([5]; Experiment A3, 10 min): 81%
- CFU/ml % recovery (as compared to control flask F) ([5]; Experiment A3, 45 min): 55%
- CFU/ml % recovery (as compared to control flask F) ([5]; Experiment A3, 90 min): 64%
- CFU/ml % recovery (as compared to control flask F) [5, 11]: 89%
- CFU/ml % recovery (as compared to control flask F) [5, 12]: 54%
- CFU/ml % recovery (as compared to control flask F) [5, 13]: 27%
- CFU/ml % recovery (as compared to control flask F) [5, 14]: 30%
- CFU/ml % recovery (as compared to control flask F) [5, 15]: 15%
- CFU/ml % recovery (as compared to control flask F) [5, 16]: 70%
- CFU/ml % recovery (as compared to control flask F) [5, 17]: 78%
- CFU/ml % recovery (as compared to control flask F) [5, 18]: 45%
- CFU/ml % recovery (as compared to control flask F) [5, 19]: 33%
- CFU/ml % recovery (as compared to control flask F) [5, 20]: 46%
- CFU/ml % recovery (as compared to control flask F) [5, 21]: 105%
- CFU/ml % recovery (as compared to control flask F) [5, 22]: 80%
- CFU/ml % recovery (as compared to control flask F) [5, 23]: 46%
- CFU/ml % recovery (as compared to control flask F) [5, 24]: 67%
- CFU/ml % recovery (as compared to control flask F) [5, 25]: 37%
- CFU/ml % recovery (as compared to control flask F) [5, 26]: 75%
- CFU/ml % recovery (as compared to control flask F) [5, 27]: 58%
- CFU/ml % recovery (as compared to control flask F) [5, 28]: 34%
- CFU/ml % recovery (as compared to control flask F) [5, 29]: 34%
- CFU/ml % recovery (as compared to control flask F) [5, 30]: 14%
- Log Reduction PFU/ml (standard deviation), FCV ([3]; listed as 3% Levulinic acid): 0.43 (±0.23) log PFU/ml
- Log Reduction PFU/ml (standard deviation), MNV-1 ([4]; listed as 3% Levulinic acid): −0.09 (±0.10) log PFU/ml
